Key:
[1] = tested on: HepG2 cells; assay: TG and TC content in OA-induced high-fat HepG2 cells; format: cell-based, human; details: 1 mM OA high-fat model vs control group
Description: For high fat HepG2 model: […] Afterwards, cells were harvested and lysed. […] For TG and TC assay: […] The medium was removed and the cells were washed twice with PBS. The levels of triglycerides (TG) and total cholesterol (TC) in the cells were determined according to the instructions of test kits.

[2] = tested on: Fasn; assay: Western blot of Fasn protein in Caco-2/HepG2 co-culture; format: cell-based, human; details: 1 mM OA vs. control, p < 0.01
Description: Cells from the co-culture model were lysed and supernatants were collected. The protein concentrations were determined using the BCA Protein Quantitation Kit. Then electrophoresis of samples was conducted using a SDS-PAGE kit (Beyotime Biotechnology) following the manufacturer’s instructions and transferred to poly-vinylidene difluoride (PVDF) membrane. Next, membranes were incubated in 5% nonfat milk to block non-specific antibody binding for 30 min at room temperature and followed by incubating with primary antibodies and secondary antibodies. Chemiluminescence based-images of the blots were acquired using ImageQuant LAS 500 system (GE, United States). Protein bands were quantified using ImageJ (version 1.53a) software. The changes in expression levels of these proteins detected finally are used to evaluate the sample’s effect on lipid metabolism.

[3] = tested on: Caco-2 cell monolayers; assay: Bidirectional transport across Caco-2 cell monolayer; format: in vitro ADME, human; details: 50 μmol/L, no inhibitor
Description: The cells were seeded at a density of approximately 10^5 cells/cm^2 on TranswellTM filter (Corning Inc., Lowell, MA) and cultured for 21 d before use. Cell monolayer integrity was controlled by the measurement of trans-epithelial electrical resistance (TEER) with an EVOM epithelial voltammeter equipped with an electrode (World Precision Instruments, Sarasota, FL, United States). […] (a) R(%)=CBL×VBL/CAP×VAP×100 In this, R represents the absorption rate (as a percentage); CBL is the anthocyanin concentration of the BL side (in μM); VBL is the volume of anthocyanins from the BL (in L); CAP is the initial anthocyanin concentration of the AP side (in μM), and VAP is the volume of anthocyanins in the AP chamber (in L). The absorption rate of anthocyanins from BL to AP is calculated using the following Equation b: (b) R(%)=CAP×VAP/CBL×VBL×100 In this, R represents the absorption rate (as a percentage); CAP is the anthocyanin concentration from the AP side (in μM); VAP is the volume of anthocyanins in the AP chamber (in mL); CBL is the initial concentration from the BL side (in μM) and VBL is the volume of anthocyanins in the BL chamber (in L).

Row | Compound | increase of TC level [1] [%] | increase of TG level [1] [%] | Fasn protein expression level [2] [fold] | ER (efflux rate) ([3]; 30 min) | Papp (AP → BL) ([3]; 30 min) | ER (efflux rate) ([3]; 60 min) | Papp (AP → BL) ([3]; 60 min) | ER (efflux rate) ([3]; 90 min) | Papp (AP → BL) ([3]; 90 min) | ER (efflux rate) ([3]; 120 min) | Papp (AP → BL) ([3]; 120 min) | ER (efflux rate) ([3]; 150 min) | Papp (AP → BL) ([3]; 150 min)
1 | CCCCCCCC/C=C\CCCCCCCC(=O)O [OA, Oleic acid] | 12 | 22 | 1.59 ± 0.16 | – | – | – | – | – | – | – | – | – | –
2 | O=C1OC2(c3ccc(O)cc3Oc3cc(O)ccc32)c2ccccc21 [Fluorescin, Fluorescein, reference compound] | – | – | – | 0.56 | 5.75 ± 0.17 ×10^−5 cm /s | 0.34 | 5.07 ± 1.72 ×10^−5 cm /s | 0.3 | 4.59 ± 2.21 ×10^−5 cm /s | 0.27 | 4.6 ± 2.63 ×10^−5 cm /s | 0.25 | 4.65 ± 2.94 ×10^−5 cm /s

Reference: paper PMC12402003 (Frontiers in Nutrition, 2025)
